Assay results reported in patent publication US12331033B2, “Inhibitors of SARM1” (Disarm Therapeutics, Inc., priority 2020, dated 2025).

Biological target: SARM1 (ARM-SAM-TIR) (Homo sapiens (Human), UniProt Q6SZW1)
Experiment: ARM-SAM-TIR SARM1 IC50 assay (NADase activity, NAD+ cleavage, RapidFire MS)
Assay type: biochemical
Settings: ARM-SAM-TIR lysate 5 μg/mL, 2 h pre-incubation, 5 μM NAD+, 2 hr room temperature
Protocol: This Example describes an assay of ARM-SAM-TIR NADase activity and use of this assay to measure the efficacy of compounds of Formula I or Formula I′ to block SARM1 mediated NAD+ cleavage. This assay was optimized in such a way as to characterize the efficacy of the compounds in Formula I or Formula I′ to inhibit SARM1 activity and to calculate an IC50 value for each compound. This assay makes use of full length SARM1, which encompasses the ARM, SAM and TIR domains.
NRK1-HEK293T cells were seeded onto 150 cm^2 plates at 20×10^6 cells per plate. The next day, the cells were transfected with 15 μg ARM-SAM-TIR expression plasmid, SEQ ID NO: 1.
The cultures were supplemented with 1 mM NR at time of transfection to minimize toxicity from ARM-SAM-TIR overexpression. Forty-eight hours after transfection, cells were harvested, pelleted by centrifugation at 1,000 rpm (Sorvall ST 16R centrifuge, Thermo Fisher), and washed once with cold PBS (0.01 M phosphate buffered saline NaCl 0.138 M; KCl 0.0027 M; pH 7.4). The cells were resuspended in PBS with protease inhibitors (cOmplete™ protease inhibitor cocktail, Roche product #11873580001) and cell lysates were prepared by sonication (Branson Sonifer 450, output=3, 20 episodes of stroke). The lysates were centrifuged (12,000×g for 10 min at 4° C.) to remove cell debris and the supernatants (containing ARM-SAM-TIR protein) were stored at −80° C. for later use in the in vitro ARM-SAM-TIR NADase assay (see below). Protein concentration was determined by the Bicinchoninic (BCA) method and used to normalize lysate concentrations.
The enzymatic assay was performed in a 384-well polypropylene plate in Dulbecco's PBS buffer in a final assay volume of 20 μL. ARM-SAM-TIR lysate with a final concentration of 5 μg/mL was pre-incubated with the respective compound at 1% DMSO final assay concentration over 2 h at room temperature. The reaction was initiated by addition of 5 μM final assay concentration of NAD+ as substrate. After a 2 hr room temperature incubation, the reaction was terminated with 40 μL of stop solution of 7.5% trichloroactetic acid in acetonitrile. The NAD+ and ADPR concentrations were analyzed by a RapidFire High Throughput Mass Spectrometry System (Agilent Technologies, Santa Clara, Calif.) using an API4000 triple quadrupole mass spectrometer (AB Sciex Framingham, Mass.).

Chain of SARM1 (ARM-SAM-TIR) (Q6SZW1 other isoform, or with tags, fused parts or gaps): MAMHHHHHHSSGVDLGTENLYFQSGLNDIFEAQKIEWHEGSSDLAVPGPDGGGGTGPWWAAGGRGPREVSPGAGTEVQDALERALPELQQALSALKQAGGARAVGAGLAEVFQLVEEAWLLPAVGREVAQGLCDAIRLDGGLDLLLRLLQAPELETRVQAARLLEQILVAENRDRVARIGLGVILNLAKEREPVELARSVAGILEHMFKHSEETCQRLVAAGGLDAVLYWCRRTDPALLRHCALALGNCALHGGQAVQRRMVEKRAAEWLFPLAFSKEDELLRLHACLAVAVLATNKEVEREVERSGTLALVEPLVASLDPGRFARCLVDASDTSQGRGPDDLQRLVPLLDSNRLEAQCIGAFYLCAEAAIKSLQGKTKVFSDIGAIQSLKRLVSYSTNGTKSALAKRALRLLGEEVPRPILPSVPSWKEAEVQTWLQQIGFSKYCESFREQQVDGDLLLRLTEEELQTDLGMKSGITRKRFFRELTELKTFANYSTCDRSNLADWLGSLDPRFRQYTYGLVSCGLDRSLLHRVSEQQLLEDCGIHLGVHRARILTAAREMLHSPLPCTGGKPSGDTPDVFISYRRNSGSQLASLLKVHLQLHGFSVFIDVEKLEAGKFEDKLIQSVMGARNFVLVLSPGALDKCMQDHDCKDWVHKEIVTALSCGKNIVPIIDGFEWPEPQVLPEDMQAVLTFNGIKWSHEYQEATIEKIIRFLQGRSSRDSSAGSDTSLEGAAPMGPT

SMILES	IC50 [µM]
O=C(CCc1ccc(C(F)(F)F)cc1)Nc1[nH]nc(-c2ccnnc2)c1Br [Example 158]	< 5
O=C(CCc1ccc(Cl)s1)Nc1nc(-c2ccncc2)c[nH]1 [Example 159]	< 5
O=C(NCc1cccc(Cl)c1)Nc1nnc(-c2ccncc2)[nH]1 [Example 160]	< 5
NS(=O)(=O)c1c(-c2ccncc2)n[nH]c1NC(=O)CCc1ccc(Cl)cc1 [Example 161]	5 to 15
[2H]C([2H])(C(=O)Nc1cc(-c2ccncc2)n[nH]1)C([2H])([2H])c1ccc(Cl)cc1 [Example 162]	< 5
Cn1cncc1-c1nnc(NC(=O)CCc2ccc(Cl)cc2)[nH]1 [Example 163]	< 5
CN(Cc1ccc(Cl)cc1)C(=O)Nc1nnc(-c2ccncc2)[nH]1 [Example 164]	< 5
O=C(NCc1ccc(Cl)nc1)Nc1nnc(-c2ccncc2)[nH]1 [Example 165]	< 5
O=C(Nc1nnc(-c2ccncc2)[nH]1)N1CCc2nc(Cl)ccc2C1 [Example 166]	< 5
O=C(CCc1ccc(Cl)cc1)Nc1[nH]nc(-c2ccncc2)c1Br [Example 167]	< 5
O=C(CCc1ccc(Cl)cc1)Nc1[nH]nc(-c2ccncc2)c1F [Example 168]	< 5
[2H]C([2H])(C(=O)Nc1nnc(-c2ccncc2)[nH]1)C([2H])([2H])c1ccc(Cl)cc1 [Example 169]	< 5
[2H]C([2H])(C(=O)Nc1[nH]nc(-c2ccncc2)c1C)C([2H])([2H])c1ccc(Cl)cc1 [Example 170]	< 5
[2H]C([2H])(C(=O)Nc1[nH]nc(-c2ccncc2)c1C)C([2H])([2H])c1ccc(Cl)nc1 [Example 171]	< 5
O=C(CC1CCOc2cc(Cl)ccc21)Nc1cc(-c2ccncc2)n[nH]1 (stereo not drawn) [Example 172]	< 5
Cc1c(-c2ccncc2)n[nH]c1NC(=O)CC1CCOc2cc(Cl)ccc21 (stereo not drawn) [Example 173]	< 5
O=C(NCc1ccc(Cl)nc1)Nc1cc(-c2ccncc2)n[nH]1 [Example 174]	< 5
NC(Cc1ccc(Cl)c(F)c1)C(=O)Nc1cc(-c2ccncc2)n[nH]1 (stereo not drawn) [Example 175]	< 5
CN[C@@H](Cc1ccc(Cl)cc1)C(=O)Nc1cc(-c2ccncc2)n[nH]1 [Example 176]	< 5
[2H]C([2H])(C(=O)Nc1[nH]nc(-c2ccnnc2)c1C)C([2H])([2H])c1ccc(Cl)cc1 [Example 177]	< 5
[2H]C([2H])(C(=O)Nc1[nH]nc(-c2ccnnc2)c1C)C([2H])([2H])c1ccc(Cl)nc1 [Example 178]	< 5
O=C(CC1CCOc2nc(Cl)ccc21)Nc1nnc(-c2ccncc2)[nH]1 (stereo not drawn) [Example 179]	< 5
O=C(CC1CCOc2cc(Cl)ncc21)Nc1nnc(-c2ccncc2)[nH]1 (stereo not drawn) [Example 180]	< 5
O=C(Nc1cc(-c2ccncc2)n[nH]1)[C@H]1C[C@H](c2ccc(Cl)cc2)C1 [Example 181]	< 5

SMILES	IC50 [µM]
Cc1c(-c2ccncc2)n[nH]c1NC(=O)[C@H]1C[C@H](c2ccc(Cl)cc2)C1 [Example 182]	< 5
O=C(Nc1nnc(-c2ccncc2)[nH]1)NC1CCOc2cc(Cl)ccc21 (stereo not drawn) [Example 183]	5 to 15
O=C(Nc1nnc(-c2ccncc2)[nH]1)NC1CCOc2nc(Cl)ccc21 (stereo not drawn) [Example 184]	5 to 15
O=C(Nc1nnc(-c2ccncc2)[nH]1)N1CCc2cc(Cl)ccc2C1 [Example 185]	< 5
N#Cc1c(-c2ccncc2)n[nH]c1NC(=O)CCc1ccc(Cl)cc1 [Example 186]	< 5
CCOC(=O)c1c(-c2ccncc2)n[nH]c1NC(=O)CCc1ccc(Cl)cc1 [Example 187]	< 5
Cc1c(-c2ccncc2)n[nH]c1NC(=O)CCc1ccc(Cl)c(F)c1 [Example 188]	< 5
[2H]C([2H])(C(=O)Nc1cc(-c2ccnnc2)n[nH]1)C([2H])([2H])c1ccc(Cl)cc1 [Example 189]	< 5
[2H]C([2H])(C(=O)Nc1cc(-c2ccnnc2)n[nH]1)C([2H])([2H])c1ccc(Cl)nc1 [Example 190]	< 5
[2H]C([2H])(C(=O)Nc1nnc(-c2ccnnc2)[nH]1)C([2H])([2H])c1ccc(Cl)nc1 [Example 191]	< 5
O=C(CC1CCOc2cc(Cl)ccc21)Nc1cc(-c2ccnnc2)n[nH]1 (stereo not drawn) [Example 192]	< 5
O=C(CC1CCOc2cc(Cl)ccc21)Nc1nnc(-c2ccnnc2)[nH]1 (stereo not drawn) [Example 193]	< 5
O=C(CCc1ccc(Cl)cc1)Nc1[nH]nc(-c2ccncc2)c1CO [Example 194]	< 5
N#Cc1c(-c2ccncc2)n[nH]c1NC(=O)CCc1ccc(Cl)nc1 [Example 195]	< 5
O=C(Nc1nnc(-c2ccnnc2)[nH]1)[C@H]1C[C@H](c2ccc(Cl)cc2)C1 [Example 196]	< 5
O=C(Nc1cc(-c2ccnnc2)n[nH]1)[C@H]1C[C@H](c2ccc(Cl)cc2)C1 [Example 197]	< 5
Cc1cnccc1-c1cc(NC(=O)CCc2ccc(Cl)cc2)[nH]n1 [Example 198]	< 5
Cc1c(-c2ccncc2)n[nH]c1NC(=O)CC1Cc2ccccc2C1 [Example 199]	5 to 15
Cc1c(-c2ccncc2)n[nH]c1NC(=O)CCc1ccc(C(F)(F)F)cc1 [Example 200]	< 5
Cc1c(-c2ccncc2)n[nH]c1NC(=O)[C@@H](N)Cc1ccc(Cl)cc1 [Example 201]	< 5
Cc1c(-c2ccncc2)n[nH]c1NC(=O)CCc1ccc(Cl)s1 [Example 202]	< 5
O=C(CCc1ccc(Cl)cc1)Nc1[nH]nc(-c2ccncc2)c1C1CCC1 [Example 203]	< 5
O=C(CCc1ccc(Cl)nc1)Nc1[nH]nc(-c2ccncc2)c1C1CCC1 [Example 204]	5 to 15
Cc1c(-c2ccnnc2)n[nH]c1NC(=O)CCc1ccc(Cl)nc1 [Example 205]	< 5

SMILES	IC50 [µM]
O=C(C[C@H]1CCOc2cc(Cl)ccc21)Nc1cc(-c2ccnnc2)n[nH]1 [Example 206]	< 5
O=C(C[C@@H]1CCOc2cc(Cl)ccc21)Nc1cc(-c2ccnnc2)n[nH]1 [Example 207]	< 5
O=C(C[C@H]1CCOc2cc(Cl)ccc21)Nc1nnc(-c2ccncc2)[nH]1 [Example 208]	< 5
O=C(C[C@@H]1CCOc2cc(Cl)ccc21)Nc1nnc(-c2ccncc2)[nH]1 [Example 209]	< 5
O=C(Nc1cc(-c2ccnnc2)n[nH]1)[C@H]1C[C@H](c2ccc(Cl)nc2)C1 [Example 210]	< 5
N#Cc1c(-c2ccncc2)c[nH]c1NC(=O)CCc1ccc(Cl)nc1 [Example 211]	< 5
O=C(C[C@H]1CCOc2cc(Cl)ccc21)Nc1cc(-c2ccncc2)n[nH]1 [Example 212]	< 5
O=C(C[C@@H]1CCOc2cc(Cl)ccc21)Nc1cc(-c2ccncc2)n[nH]1 [Example 213]	< 5
Cc1c(-c2ccncc2)n[nH]c1NC(=O)C[C@H]1CCOc2cc(Cl)ccc21 [Example 214]	< 5
Cc1c(-c2ccncc2)n[nH]c1NC(=O)C[C@@H]1CCOc2cc(Cl)ccc21 [Example 215]	< 5
Cc1c(-c2ccncc2)n[nH]c1NC(=O)N1CC(c2ccccc2)C1 [Example 216]	< 5
Cc1cnccc1-c1nnc(NC(=O)CCc2ccc(Cl)cc2)[nH]1 [Example 217]	< 5
Cc1c(-c2ccncc2)n[nH]c1NC(=O)N1CC(c2ccc(Cl)cc2)C1 [Example 218]	< 5
CCc1c(-c2ccncc2)n[nH]c1NC(=O)CCc1ccc(Cl)nc1 [Example 219]	< 5
Cc1c(-c2ccncc2)n[nH]c1NC(=O)C1CN(c2ccc(Cl)cc2)C1 [Example 220]	5 to 15
Cc1c(-c2ccncc2)n[nH]c1NC(=O)CCc1ccc(F)cc1 [Example 221]	< 5
Cc1c(-c2ccncc2)n[nH]c1NC(=O)CCc1cc(F)cc(F)c1 [Example 222]	< 5
Cc1c(-c2ccncc2)n[nH]c1NC(=O)C(O)Cc1ccc(Cl)cc1 (stereo not drawn) [Example 223]	< 5
Cc1c(-c2ccncc2)n[nH]c1NC(=O)CN(C)c1ccc(Cl)cc1 [Example 224]	5 to 15
N#Cc1cnccc1-c1nnc(NC(=O)CCc2ccc(Cl)cc2)[nH]1 [Example 225]	< 5
O=C(Nc1nnc(-c2ccncc2)[nH]1)NC1CCOc2cc(Cl)ncc21 (stereo not drawn) [Example 226]	< 5
O=C(CCc1ccc(Cl)cc1)Nc1[nH]nc(-c2ccncc2)c1C1CC1 [Example 227]	< 5
O=C(CCc1ccc(Cl)nc1)Nc1[nH]nc(-c2ccncc2)c1C1CC1 [Example 228]	< 5
CCOC(=O)Cc1c(-c2ccncc2)n[nH]c1NC(=O)CCc1ccc(Cl)cc1 [Example 229]	< 5
